pIC50, pKi: −log10 of the molar value. Read-outs that look alike come from different tables or passages of the source.
Tests used:
[1] = target: Human recombinant PARP1 (Homo sapiens, UniProt P09874); test: RBC HotSpot PARP1 radioisotope-based filter binding assay; assay type: biochemical
Experimental: (§1) The following methods are for evaluating the in vitro biology properties of the test articles. • a. RBC HotSpot Poly(ADP-ribose) Polymerases 1 (PARP1) and Poly(ADP-ribose) Polymerases 2 (PARP2) Assays: The assay principle is radioisotope-based filter binding assay where incorporation of radioisotope-labeled NAD^+ into the substrate captured on filter is detected after washout free NAD^+. Data were analyzed using Excel and GraphPad Prism software for IC50 curve fits. Each assay was conducted with PJ34 as a positive control. • i. PARP1 assay: Human recombinant PARP1 at a final concentration of 2.5 nM was combined with histone H4 (20 μM) and test articles at various concentrations in reaction buffer (50 mM Tris-HCL, pH 8.0, 50 mM NaCl, 10 mM MgCl2, 1 mM DTT, 1% DMSO, and 20 μg/mL activated DNA). The solution was inoculated for 20 min at room temperature and the reaction initiated by adding [adenylate-^32P]-Nicotinamide Adenine Dinucleotide, ^32P-NAD^+ at a final concentration of 10 μM. After incubation for 2 hour at room temperature, the reaction mixture was filtered and washed with 0.75% phosphoric acid for radioactivity detection. • ii. PARP2 assay: Human recombinant PARP2 at a final concentration of 2.5 nM was combined with histone H3 (20 μM) and test articles at various concentrations in reaction buffer (50 mM Tris-HCL, pH 8.0, 50 mM NaCl, 10 mM MgCl2, 1 mM DTT, 1% DMSO, and 20 μg/mL activated DNA). The solution was inoculated for 20 min at room temperature and the reaction was initiated by adding [adenylate-^32P]-Nicotinamide Adenine Dinucleotide, ^32P-NAD^+ at a final concentration of 10 μM. After incubation for 2 hour at room temperature, the reaction mixture was filtered and washed with 0.75% phosphoric acid for radioactivity detection. • b. AR binding assay: AR in LNCaP cytosol was used for determining the binding affinity of test articles and the reference compound—progesterone (Sigma, Cat: E2785, St. Louis, MO). IC50s were determined using 8 concentrations/compound. Cytosol was plated at 200 μg/well (100 μL) into a 96-well conical polypropylene plate (Agilent, Cat: 5042-1385, Santa Clara, CA) and mixed with 3 μL of test compound. After adding 100 μL of ^3H-methyltrienolone (PerkinElmer, Cat: NET590250UC, San Jose, CA), the plate was sealed and shaken at 300 rpm at 4° C. for 24 hours. Post incubation, 100 μL of radioligand adsorption buffer containing 10 mM Tris-HCl, pH 7.4; 1.5 mM EDTA; 1 mM DTT; 0.25% charcoal; 0.0025% dextran was added to individual well. Plate was shaken for 15 min at 4′C followed by centrifugation at 3000 rpm for 30 min at 4° C. 150 μL of supernatant was transferred into scint-tube (PerkinElmer, Cat: 6000192) and mixed with 2 mL of Ultima Gold Cocktail (PerkinElmer, Cat: 6013329). Radioactivity was counted using a TriCarb 2910 TR scintillation counter (PerkinElmer). Inhibition of the radioactivity by test articles were calculated using the equation below: % Inhibition=(1−(Assay well−Average_LC)/(Average_HC−Average_LC))×100%.

[2] = target: T1, AR in LNCaP cytosol (Homo sapiens, UniProt P10275, T878A); test: AR binding assay (3H-methyltrienolone displacement)
T1 construct: endogenous in cells; host or cells: LNCaP cytosol
T1 sequence (P10275 1-920 T878A): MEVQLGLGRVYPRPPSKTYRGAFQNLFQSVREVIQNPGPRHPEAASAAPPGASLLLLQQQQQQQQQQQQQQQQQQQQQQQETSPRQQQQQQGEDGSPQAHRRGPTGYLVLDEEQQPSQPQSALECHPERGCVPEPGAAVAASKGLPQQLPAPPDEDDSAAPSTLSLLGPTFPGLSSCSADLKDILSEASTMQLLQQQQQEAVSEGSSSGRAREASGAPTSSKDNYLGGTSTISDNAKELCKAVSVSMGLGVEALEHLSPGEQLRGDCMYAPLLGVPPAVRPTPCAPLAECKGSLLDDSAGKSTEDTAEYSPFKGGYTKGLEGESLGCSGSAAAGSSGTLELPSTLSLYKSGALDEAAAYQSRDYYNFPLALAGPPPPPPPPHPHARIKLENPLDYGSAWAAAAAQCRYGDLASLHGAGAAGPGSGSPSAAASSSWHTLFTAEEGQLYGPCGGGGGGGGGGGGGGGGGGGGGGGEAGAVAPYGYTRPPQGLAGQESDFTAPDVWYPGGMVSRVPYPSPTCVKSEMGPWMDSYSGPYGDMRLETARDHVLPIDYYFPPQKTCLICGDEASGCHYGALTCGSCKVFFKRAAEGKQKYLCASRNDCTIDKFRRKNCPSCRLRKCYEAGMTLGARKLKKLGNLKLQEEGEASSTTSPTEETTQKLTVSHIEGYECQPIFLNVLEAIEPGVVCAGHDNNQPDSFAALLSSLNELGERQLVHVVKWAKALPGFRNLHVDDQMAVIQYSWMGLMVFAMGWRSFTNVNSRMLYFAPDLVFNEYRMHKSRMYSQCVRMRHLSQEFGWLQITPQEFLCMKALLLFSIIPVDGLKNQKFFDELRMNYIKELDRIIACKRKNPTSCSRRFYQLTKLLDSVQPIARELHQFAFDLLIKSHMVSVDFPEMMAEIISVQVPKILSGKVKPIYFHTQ
Experimental: as §1
IC50 values were calculated and graphed using the model “log(inhibitor) vs. response—Variable slope” included in GraphPad Prism 5 (San Diego, CA). The Ki values were further calculated using the equation below where [L] was the radioligand concentration (1 nM) using in this study. Kd value was 0.332 nM. Ki=IC50/(1+[L]/Kd) c. AR transactivation: Human AR cloned into a CMV vector backbone was used for the transactivation study. HEK-293 cells were plated at 80,000 cells per well of a 24 well plate in DME+5% csFBS. Twenty four hours later, the cells were transfected using Lipofectamine (Invitrogen, Carlsbad, CA) with 0.25 μg GRE-LUC, 0.01 μg CMV-LUC (renilla luciferase) and 25 ng of the AR in OPTIMEM medium. The cells were treated 24 hrs after transfection with various ligands (10^−12 to 10^−5 M final concentrations) and luciferase assay were performed 48 hours after transfection. […]

[3] = 2.5 nM enzyme, histone H4, 10 μM 32P-NAD+, read-out: PARP1 IC50

Human recombinant PARP1, sequence (P09874 whole entry): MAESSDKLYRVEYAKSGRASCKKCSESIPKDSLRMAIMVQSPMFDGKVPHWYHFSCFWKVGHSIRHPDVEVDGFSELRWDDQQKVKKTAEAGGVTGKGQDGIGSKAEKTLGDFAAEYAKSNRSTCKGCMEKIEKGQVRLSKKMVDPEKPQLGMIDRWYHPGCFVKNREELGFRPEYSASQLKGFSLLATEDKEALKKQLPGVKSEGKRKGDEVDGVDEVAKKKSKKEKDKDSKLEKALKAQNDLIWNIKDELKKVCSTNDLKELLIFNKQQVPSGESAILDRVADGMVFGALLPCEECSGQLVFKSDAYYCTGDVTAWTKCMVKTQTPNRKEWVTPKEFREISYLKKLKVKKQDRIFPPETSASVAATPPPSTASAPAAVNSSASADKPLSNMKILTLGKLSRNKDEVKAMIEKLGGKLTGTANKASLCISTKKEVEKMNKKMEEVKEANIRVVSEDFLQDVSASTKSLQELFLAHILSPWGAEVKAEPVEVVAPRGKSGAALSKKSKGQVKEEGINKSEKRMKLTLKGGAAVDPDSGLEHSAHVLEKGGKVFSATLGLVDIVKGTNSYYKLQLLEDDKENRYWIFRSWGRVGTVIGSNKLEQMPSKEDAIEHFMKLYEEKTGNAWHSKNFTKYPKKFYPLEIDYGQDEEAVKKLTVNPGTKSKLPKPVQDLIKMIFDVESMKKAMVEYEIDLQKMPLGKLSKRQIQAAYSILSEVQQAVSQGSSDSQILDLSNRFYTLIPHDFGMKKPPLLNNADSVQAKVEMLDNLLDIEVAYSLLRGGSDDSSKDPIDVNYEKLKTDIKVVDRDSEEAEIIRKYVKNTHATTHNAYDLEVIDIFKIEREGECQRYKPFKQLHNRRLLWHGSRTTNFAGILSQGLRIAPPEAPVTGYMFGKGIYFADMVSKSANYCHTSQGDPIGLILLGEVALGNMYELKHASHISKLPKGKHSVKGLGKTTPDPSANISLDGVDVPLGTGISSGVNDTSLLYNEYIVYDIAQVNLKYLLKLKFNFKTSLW

Row | SMILES | pIC50 [1] | pKi [2] | pIC50 [1, 3]
1 | CC(O)(CS(=O)(=O)c1ccc(NCCn2cc(CN3CCN(C(=O)c4cc(Cc5n[nH]c(=O)c6ccccc56)ccc4F)CC3)nn2)cc1)C(=O)Nc1ccc(C#N)c(C(F)(F)F)c1 (stereo in doubt) [Compound 1.97, (S)-N-(4-cyano-3-(trifluoromethyl)phenyl)-3-(4-(2-(4-((4-(2-fluoro-5-((4-oxo-3,4-dihydrophthalazin-1-yl)methyl)benzoyl)piperazin-1-yl)methyl)-1H-1,2,3-triazol-1-yl)ethylamino)phenylsulfonyl)-2-hydroxy-2-methylpropanamide] | 8.70 | 6.30 | –
2 | C[C@]12CCC(=O)C[C@@H]1CC[C@@H]1[C@@H]2CC[C@@]2(C)[C@H]1CC[C@@]2(O)CCC(=O)N1CCN(C(=O)c2cc(Cc3n[nH]c(=O)c4ccccc34)ccc2F)CC1 (stereo in doubt) [Compound 1.117, 4-(4-fluoro-3-(4-(3-((5S,8R,9S,10S,13S,14S,17R)-17-hydroxy-10,13-dimethyl-3-oxohexadecahydro-1H-cyclopenta[a]phenanthren-17-yl)propanoyl)piperazine-1-carbonyl)benzyl)phthalazin-1(2H)-one] | – | 7.22 | 9.52
3 | CC1(C)C(=O)N(c2ccc(C#N)c(C(F)(F)F)c2)C(=S)N1c1ccc(C(=O)NCCCCCC(=O)N2CCN(C(=O)c3cc(Cc4n[nH]c(=O)c5ccccc45)ccc3F)CC2)c(F)c1 [Compound 1.1, 4-(3-(4-cyano-3-(trifluoromethyl)phenyl)-5,5-dimethyl-4-oxo-2-thioxoimidazolidin-1-yl)-2-fluoro-N-(6-(4-(2-fluoro-5-((4-oxo-3,4-dihydrophthalazin-1-yl)methyl)benzoyl)piperazin-1-yl)-6-oxohexyl)benzamide] | 8.70 | – | –
4 | C[C@]12CCC(=O)C[C@@H]1CC[C@@H]1[C@@H]2CC[C@]2(C)[C@@H](OCCCCCC(=O)N3CCN(C(=O)c4cc(Cc5n[nH]c(=O)c6ccccc56)ccc4F)CC3)CC[C@@H]12 [Compound 1.2, 4-(3-(4-(6-(((5S,8R,9S,10S,13S,14S,17S)-10,13-dimethyl-3-oxohexadecahydro-1H-cyclopenta[a]phenanthren-17-yl)oxy)hexanoyl)piperazine-1-carbonyl)-4-fluorobenzyl)phthalazin-1(2H)-one] | – | 8.88 | 8.52
5 | CC1(C)C(=O)N(c2ccc(C#N)c(C(F)(F)F)c2)C(=S)N1c1ccc(C(=O)NCCCCCCNCc2ccc(-c3[nH]c4cc(F)cc5c4c3CCNC5=O)cc2)c(F)c1 [Compound 1.5, 4-(3-(4-cyano-3-(trifluoromethyl)phenyl)-5,5-dimethyl-4-oxo-2-thioxoimidazolidin-1-yl)-2-fluoro-N-(6-((4-(8-fluoro-1-oxo-2,3,4,6-tetrahydro-1H-azepino[5,4,3-cd]indol-5-yl)benzyl)amino)hexyl)benzamide] | 7.64 | 6.54 | –
6 | C[C@](O)(CS(=O)(=O)c1ccc(NCCCCCC(=O)N2CCN(C(=O)c3cc(Cc4n[nH]c(=O)c5ccccc45)ccc3F)CC2)cc1)C(=O)Nc1ccc(C#N)c(C(F)(F)F)c1 [Compound 1.68, (R)-N-(4-cyano-3-(trifluoromethyl)phenyl)-3-(4-(6-(4-(2-fluoro-5-((4-oxo-3,4-dihydrophthalazin-1-yl)methyl)benzoyl)piperazin-1-yl)-6-oxohexylamino)phenylsulfonyl)-2-hydroxy-2-methylpropanamide] | 9.52 | 6.04 | –
7 | C[C@](O)(COc1ccc(NCCCCCC(=O)N2CCN(C(=O)c3cc(Cc4n[nH]c(=O)c5ccccc45)ccc3F)CC2)cc1)C(=O)Nc1ccc(C#N)c(C(F)(F)F)c1 [Compound 1.83, (S)-N-(4-cyano-3-(trifluoromethyl)phenyl)-3-(4-(6-(4-(2-fluoro-5-((4-oxo-3,4-dihydrophthalazin-1-yl)methyl)benzoyl)piperazin-1-yl)-6-oxohexylamino)phenoxy)-2-hydroxy-2-methylpropanamide] | – | 6.86 | 9.15
8 | C[C@](O)(CS(=O)(=O)c1ccc(NCC(=O)N2CCN(C(=O)c3cc(Cc4n[nH]c(=O)c5ccccc45)ccc3F)CC2)cc1)C(=O)Nc1ccc(C#N)c(C(F)(F)F)c1 [Compound 1.98, (R)-N-(4-cyano-3-(trifluoromethyl)phenyl)-3-(4-(2-(4-(2-fluoro-5-((4-oxo-3,4-dihydrophthalazin-1-yl)methyl)benzoyl)piperazin-1-yl)-2-oxoethylamino)phenylsulfonyl)-2-hydroxy-2-methylpropanamide] | 9.70 | 6.74 | –
9 | CN(CCCCCC(=O)N1CCN(C(=O)c2cc(Cc3n[nH]c(=O)c4ccccc34)ccc2F)CC1)CCOc1ccc(C(=O)c2c(-c3ccc(O)cc3)sc3cc(O)ccc23)cc1 [Compound 2.4, 4-(4-fluoro-3-(4-(6-((2-(4-(6-hydroxy-2-(4-hydroxyphenyl)benzo[b]thiophene-3-carbonyl)phenoxy)ethyl)(methyl)amino)hexanoyl)piperazine-1-carbonyl)benzyl)phthalazin-1(2H)-one] | – | – | 8.40
10 | O=C(c1ccc(OCCN2CCN(C(=O)c3cc(Cc4n[nH]c(=O)c5ccccc45)ccc3F)CC2)cc1)c1c(-c2ccc(O)cc2)sc2cc(O)ccc12 [Compound 2.13, 4-(4-fluoro-3-(4-(2-(4-(6-hydroxy-2-(4-hydroxyphenyl)benzo[b]thiophene-3-carbonyl)phenoxy)ethyl)piperazine-1-carbonyl)benzyl)phthalazin-1(2H)-one] | – | – | 8.48
11 | CCC(=C(c1ccc(O)cc1)c1ccc(OCCN2CCN(C(=O)c3cc(Cc4n[nH]c(=O)c5ccccc45)ccc3F)CC2)cc1)c1ccccc1 [Compound 2.14, 4-(4-fluoro-3-(4-(2-(4-(1-(4-hydroxyphenyl)-2-phenylbut-1-enyl)phenoxy)ethyl)piperazine-1-carbonyl)benzyl)pthalazin-1(2H)-one] | – | – | 6.56

Reference: patent US12398121B2 (Nuvation Bio Inc., priority 2018, dated 2025)
